Source: patent US20200163984A1, “USE OF ISOVALERYL SPIRAMYCIN I, II AND/OR III IN MANUFACTURING MEDICAMENT FOR TREATING AND/OR PREVENTING TUMOR, AND MEDICAMENT” (SHENYANG FUYANG PHARMACEUTICAL TECHNOLOGY CO., LTD., priority 2017, published 2020)

What was measured:
[1] = test system: transplanted tumor of human lymphoma cell U937; test: U937 transplanted tumor in nude mice
Procedure: (§1) U937 cells in a logarithmic growth phase were taken and subjected to a trypan blue exclusion experiment showing that the cell viability was more than 95%, then the cells were subjected to trypsinization, centrifugation, and supernatant removal. Then cell concentration was adjusted to 1×10^7/ml with matrigel, then each nude mouse was inoculated subcutaneously with 0.2 ml of cells at its right armpit and recorded as the first day of inoculation. When the tumor grows to be greater than or equal to 100 mm^3, the mice were randomly divided into 11 groups with 6 mice in each group: a model group, a cyclophosphamide group, isovaleryl spiramycin I groups with doses of 25, 50 and 100 mg/kg, isovaleryl spiramycin II groups with doses of 25, 50 and 100 mg/kg, and isovaleryl spiramycin III groups with doses of 25, 50 and 100 mg/kg. Each group was continuously administered intragastrically for 30 days with a dose of 20 ml/kg. The mice were sacrificed the next day after drug withdrawal and the indicators were tested. The long diameter and short diameter of the tumor, and the body weight of each mouse were recorded every 3 days from drug administration to nude mouse sacrifice.
(§2) The body weight of the nude mice and the long diameter (a) and short diameter (b) of the transplanted tumor were measured every 3 days, and the tumor volume (v), relative tumor volume (RTV) and relative tumor proliferation rate (T/C) are calculated respectively according to the following formulas, wherein V=a×b^2/2; RTV=V/V0 (V0 is the tumor volume before administration, V is the tumor volume before sacrifice), and T/C (%)=treatment group RTV/model control group RTV×100%.
(§3) Each mouse was weighed and sacrificed. After the tumor was completely stripped off from the body of the mouse, the non-tumor tissues such as blood stains and fat were removed to weigh the tumor and calculate the tumor growth inhibition rate. The average tumor weight of each group of mice is used as an indicator of efficacy. Tumor growth inhibition rate (%)=(1−the average tumor weight of the treatment group/the average tumor weight of the model group)×100%.

[2] = test system: transplanted tumor of human cervical cancer cell HeLa; test: HeLa transplanted tumor in nude mice
Procedure: as §1, with “HeLa” for “U937”
as §2, §3

[3] = Thymus index and spleen index of Lewis lung cancer tumor-bearing mice; details: for Spleen Index (%) / Thymus Index (%): n = 6
Procedure: In the Lewis lung cancer model, the mice inoculated with the tumor were randomly divided into groups with 10 mice in each group the next day of inoculation. The groups included: a model control group, a positive drug cyclophosphamide control group (CTX, 30 mg/kg), isovaleryl spiramycin I groups with doses of 13, 26 and 52 mg/kg; isovaleryl spiramycin II groups with doses of 13, 26 and 52 mg/kg; isovaleryl spiramycin III groups with doses of 13, 26 and 52 mg/kg. Each group was continuously administered intragastrically for 15 days with a dose of 20 ml/kg.

[4] = U937, high dose (100 mg/kg in method) i.g. 30 days
[5] = U937, low dose (25 mg/kg in method) i.g. 30 days
[6] = U937, medium dose (50 mg/kg in method) i.g. 30 days
[7] = HeLa, high dose (100 mg/kg in method) i.g. 30 days
[8] = HeLa, low dose (25 mg/kg in method) i.g. 30 days
[9] = HeLa, medium dose (50 mg/kg in method) i.g. 30 days

For `CCC(=O)O[C@@H]1CC(=O)O[C@H](C)C/C=C/C=C/[C@H](O[C@H]2CC[C@H](N(C)C)[C@@H](C)O2)[C@H](C)C[C@H](CC=O)[C@H](O[C@@H]2O[C@H](C)[C@@H](O[C@H]3C[C@@](C)(O)[C@@H](OC(=O)CC(C)C)[C@H](C)O3)[C@H](N(C)C)[C@H]2O)[C@H]1OC` [Isovaleryl spiramycin III, isovaleryl spiramycin III], the “Relative Tumor Proliferation Rate (T/C)” value [1, 4] was 38.66%, the “tumor growth inhibition rate” value [1, 4] was 61.77% and the “Relative Tumor Proliferation Rate (T/C)” value [1, 5] was 63.36%. For the same compound, the “tumor growth inhibition rate” value [1, 5] was 41.19%, the “tumor volume and relative tumor volume compared with the model group” value ([1]; U937, low, medium and high doses, P<0.05) was “significantly lower” and the “Relative Tumor Proliferation Rate (T/C)” value [1, 6] was 49.30%. For the same compound, the “tumor growth inhibition rate” value [1, 6] was 53.03%, the “Inhibition Rate (%)” value ([1]; U937 nude mice, 12.5 mg/kg) was 41.19% and the “Relative Tumor Proliferation Rate (T/C)” value ([1]; U937 nude mice, 12.5 mg/kg) was 63.36%. For the same compound, the “Relative Tumor Volume (RTV)” value ([1]; U937 nude mice, 12.5 mg/kg) was 10.80 ± 3.02, the “Tumor Weight” value ([1]; U937 nude mice, 12.5 mg/kg) was 1.14 ± 0.54 g and the “Tumor Volume (mm3) (d 1)” value ([1]; U937 nude mice, 12.5 mg/kg, d1) was 119.70 ± 18.30 mm3. The “Tumor Volume (mm3) (d30)” value ([1]; U937 nude mice, 12.5 mg/kg, d30) was 1314.25 ± 479.76 mm3, the “Inhibition Rate (%)” value ([1]; U937 nude mice, 25 mg/kg) was 53.03% and the “Relative Tumor Proliferation Rate (T/C)” value ([1]; U937 nude mice, 25 mg/kg) was 49.30%. For the same compound, the “Relative Tumor Volume (RTV)” value ([1]; U937 nude mice, 25 mg/kg) was 8.40 ± 2.25, the “Tumor Weight” value ([1]; U937 nude mice, 25 mg/kg) was 0.91 ± 0.51 g and the “Tumor Volume (mm3) (d 1)” value ([1]; U937 nude mice, 25 mg/kg, d1) was 112.93 ± 27.42 mm3. The “Tumor Volume (mm3) (d30)” value ([1]; U937 nude mice, 25 mg/kg, d30) was 939.79 ± 296.72 mm3, the “Inhibition Rate (%)” value ([1]; U937 nude mice, 50 mg/kg) was 61.77% and the “Relative Tumor Proliferation Rate (T/C)” value ([1]; U937 nude mice, 50 mg/kg) was 38.66%. The “Relative Tumor Volume (RTV)” value ([1]; U937 nude mice, 50 mg/kg) was 6.59 ± 0.90, the “Tumor Weight” value ([1]; U937 nude mice, 50 mg/kg) was 0.74 ± 0.18 g and the “Tumor Volume (mm3) (d 1)” value ([1]; U937 nude mice, 50 mg/kg, d1) was 112.85 ± 21.90 mm3. The “Tumor Volume (mm3) (d30)” value ([1]; U937 nude mice, 50 mg/kg, d30) was 728.49 ± 51.66 mm3, the “mouse weight compared with the model group” value ([1]; mouse, in vivo) was “no significant changes” and the “Body Weight (g) (d1)” value ([1]; mouse, in vivo, 12.5 mg/kg) was 20.84 ± 0.68 g. The “Body Weight (g) (d30)” value ([1]; mouse, in vivo, 12.5 mg/kg) was 20.92 ± 0.63 g, the “Body Weight (g) (d1)” value ([1]; mouse, in vivo, 25 mg/kg) was 20.91 ± 0.58 g and the “Body Weight (g) (d30)” value ([1]; mouse, in vivo, 25 mg/kg) was 20.74 ± 0.352 g. The “Body Weight (g) (d1)” value ([1]; mouse, in vivo, 50 mg/kg) was 21.16 ± 0.61 g, the “Body Weight (g) (d30)” value ([1]; mouse, in vivo, 50 mg/kg) was 21.24 ± 0.50 g and the “Inhibition Rate (%)” value ([2]; HeLa nude mice, 12.5 mg/kg) was 39.33%. For the same compound, the “Relative Tumor Proliferation Rate (T/C)” value ([2]; HeLa nude mice, 12.5 mg/kg) was 62.92%, the “Relative Tumor Volume (RTV)” value ([2]; HeLa nude mice, 12.5 mg/kg) was 1.43 ± 1.47 and the “Tumor Weight” value ([2]; HeLa nude mice, 12.5 mg/kg) was 1.17 ± 0.64 g. For the same compound, the “Tumor Volume (mm3) (d 1)” value ([2]; HeLa nude mice, 12.5 mg/kg, d1) was 123.36 ± 21.45 mm3, the “Tumor Volume (mm3) (d30)” value ([2]; HeLa nude mice, 12.5 mg/kg, d30) was 1281.92 ± 242.71 mm3 and the “Inhibition Rate (%)” value ([2]; HeLa nude mice, 25 mg/kg) was 52.41%. For the same compound, the “Relative Tumor Proliferation Rate (T/C)” value ([2]; HeLa nude mice, 25 mg/kg) was 52.05%, the “Relative Tumor Volume (RTV)” value ([2]; HeLa nude mice, 25 mg/kg) was 8.63 ± 3.37 and the “Tumor Weight” value ([2]; HeLa nude mice, 25 mg/kg) was 0.92 ± 0.49 g. The “Tumor Volume (mm3) (d 1)” value ([2]; HeLa nude mice, 25 mg/kg, d1) was 115.2 ± 27.18 mm3, the “Tumor Volume (mm3) (d30)” value ([2]; HeLa nude mice, 25 mg/kg, d30) was 1007.46 ± 481.36 mm3 and the “Inhibition Rate (%)” value ([2]; HeLa nude mice, 50 mg/kg) was 61.68%. For the same compound, the “Relative Tumor Proliferation Rate (T/C)” value ([2]; HeLa nude mice, 50 mg/kg) was 39.33%, the “Relative Tumor Volume (RTV)” value ([2]; HeLa nude mice, 50 mg/kg) was 6.52 ± 0.73 and the “Tumor Weight” value ([2]; HeLa nude mice, 50 mg/kg) was 0.75 ± 0.11 g. For the same compound, the “Tumor Volume (mm3) (d 1)” value ([2]; HeLa nude mice, 50 mg/kg, d1) was 113.35 ± 20.84 mm3, the “Tumor Volume (mm3) (d30)” value ([2]; HeLa nude mice, 50 mg/kg, d30) was 727.16 ± 46.92 mm3 and the “Relative Tumor Proliferation Rate (T/C)” value [2, 7] was 61.68%. The “tumor growth inhibition rate” value [2, 7] was 61.68%, the “Relative Tumor Proliferation Rate (T/C)” value [2, 8] was 39.33% and the “tumor growth inhibition rate” value [2, 8] was 39.33%. The “tumor volume and relative tumor volume compared with the model group” value ([2]; HeLa, low, medium and high doses, P<0.05) was “significantly lower”, the “Relative Tumor Proliferation Rate (T/C)” value [2, 9] was 52.41% and the “tumor growth inhibition rate” value [2, 9] was 52.41%. The “mouse weight compared with the model group” value ([2]; mouse, in vivo) was “no significant changes”, the “Body Weight (g) (d1)” value ([2]; mouse, in vivo, 12.5 mg/kg) was 21.30 ± 0.64 g and the “Body Weight (g) (d30)” value ([2]; mouse, in vivo, 12.5 mg/kg) was 20.67 ± 0.45 g. The “Body Weight (g) (d1)” value ([2]; mouse, in vivo, 25 mg/kg) was 20.87 ± 0.78 g, the “Body Weight (g) (d30)” value ([2]; mouse, in vivo, 25 mg/kg) was 20.80 ± 0.55 g and the “Body Weight (g) (d1)” value ([2]; mouse, in vivo, 50 mg/kg) was 21.09 ± 0.51 g. For the same compound, the “Body Weight (g) (d30)” value ([2]; mouse, in vivo, 50 mg/kg) was 21.10 ± 0.52 g, the “Spleen Index (%)” value ([3]; dose 13 mg/kg) was 0.62 ± 0.25% and the “Thymus Index (%)” value ([3]; dose 13 mg/kg) was 0.12 ± 0.10%. For the same compound, the “Spleen Index (%)” value ([3]; dose 26 mg/kg) was 0.68 ± 0.11%, the “Thymus Index (%)” value ([3]; dose 26 mg/kg) was 0.11 ± 0.07% and the “Spleen Index (%)” value ([3]; dose 52 mg/kg) was 0.74 ± 0.23%. For the same compound, the “Thymus Index (%)” value ([3]; dose 52 mg/kg) was 0.13 ± 0.06%.

With `O=P1(N(CCCl)CCCl)NCCCO1` (centres unmarked) [Cyclophosphamide, cyclophosphamide, reference compound] the “Inhibition Rate (%)” value ([1]; U937 nude mice, 30 mg/kg) was 65.11%, the “Relative Tumor Proliferation Rate (T/C)” value ([1]; U937 nude mice, 30 mg/kg) was 35.44% and the “Relative Tumor Volume (RTV)” value ([1]; U937 nude mice, 30 mg/kg) was 6.04 ± 1.26. For the same compound, the “Tumor Weight” value ([1]; U937 nude mice, 30 mg/kg) was 0.68 ± 0.12 g, the “Body Weight (g) (d1)” value ([1]; U937 nude mice, 30 mg/kg, d1) was 21.00 ± 0.72 g and the “Tumor Volume (mm3) (d 1)” value ([1]; U937 nude mice, 30 mg/kg, d1) was 125.00 ± 32.61 mm3. For the same compound, the “Body Weight (g) (d30)” value ([1]; U937 nude mice, 30 mg/kg, d30) was 19.72 ± 0.95 g, the “Tumor Volume (mm3) (d30)” value ([1]; U937 nude mice, 30 mg/kg, d30) was 722.72 ± 55.32 mm3 and the “Inhibition Rate (%)” value ([2]; HeLa nude mice, 30 mg/kg) was 65.74%. The “Relative Tumor Proliferation Rate (T/C)” value ([2]; HeLa nude mice, 30 mg/kg) was 36.17%, the “Relative Tumor Volume (RTV)” value ([2]; HeLa nude mice, 30 mg/kg) was 6.00 ± 1.35 and the “Tumor Weight” value ([2]; HeLa nude mice, 30 mg/kg) was 0.66 ± 0.13 g. The “Body Weight (g) (d1)” value ([2]; HeLa nude mice, 30 mg/kg, d1) was 21.10 ± 0.69 g, the “Tumor Volume (mm3) (d 1)” value ([2]; HeLa nude mice, 30 mg/kg, d1) was 127.17 ± 35.82 mm3 and the “Body Weight (g) (d30)” value ([2]; HeLa nude mice, 30 mg/kg, d30) was 19.73 ± 1.22 g. For the same compound, the “Tumor Volume (mm3) (d30)” value ([2]; HeLa nude mice, 30 mg/kg, d30) was 724.89 ± 53.90 mm3, the “spleen index compared with the control group” value ([3]; Lewis tumor-bearing mice, cyclophosphamide, P<0.01) was “significantly lower” and the “Spleen Index (%)” value ([3]; dose 26 mg/kg) was 0.48 ± 0.09 %. For the same compound, the “Thymus Index (%)” value ([3]; dose 26 mg/kg) was 0.06 ± 0.02 %.
